Assay results reported in ChEMBL document CHEMBL1212811, “Chemical phylogenetics of histone deacetylases” (Nat Chem Biol, 2010).

Assays:
Histone deacetylase 2 = Histone deacetylase 2 (Homo sapiens, UniProt Q92769)
Histone deacetylase 5 = Histone deacetylase 5 (Homo sapiens, UniProt Q9UQL6)
[1] = target: T1, Protein deacetylase HDAC6 (Homo sapiens, UniProt Q9UBN7)
T1 sequence (Q9UBN7 whole entry): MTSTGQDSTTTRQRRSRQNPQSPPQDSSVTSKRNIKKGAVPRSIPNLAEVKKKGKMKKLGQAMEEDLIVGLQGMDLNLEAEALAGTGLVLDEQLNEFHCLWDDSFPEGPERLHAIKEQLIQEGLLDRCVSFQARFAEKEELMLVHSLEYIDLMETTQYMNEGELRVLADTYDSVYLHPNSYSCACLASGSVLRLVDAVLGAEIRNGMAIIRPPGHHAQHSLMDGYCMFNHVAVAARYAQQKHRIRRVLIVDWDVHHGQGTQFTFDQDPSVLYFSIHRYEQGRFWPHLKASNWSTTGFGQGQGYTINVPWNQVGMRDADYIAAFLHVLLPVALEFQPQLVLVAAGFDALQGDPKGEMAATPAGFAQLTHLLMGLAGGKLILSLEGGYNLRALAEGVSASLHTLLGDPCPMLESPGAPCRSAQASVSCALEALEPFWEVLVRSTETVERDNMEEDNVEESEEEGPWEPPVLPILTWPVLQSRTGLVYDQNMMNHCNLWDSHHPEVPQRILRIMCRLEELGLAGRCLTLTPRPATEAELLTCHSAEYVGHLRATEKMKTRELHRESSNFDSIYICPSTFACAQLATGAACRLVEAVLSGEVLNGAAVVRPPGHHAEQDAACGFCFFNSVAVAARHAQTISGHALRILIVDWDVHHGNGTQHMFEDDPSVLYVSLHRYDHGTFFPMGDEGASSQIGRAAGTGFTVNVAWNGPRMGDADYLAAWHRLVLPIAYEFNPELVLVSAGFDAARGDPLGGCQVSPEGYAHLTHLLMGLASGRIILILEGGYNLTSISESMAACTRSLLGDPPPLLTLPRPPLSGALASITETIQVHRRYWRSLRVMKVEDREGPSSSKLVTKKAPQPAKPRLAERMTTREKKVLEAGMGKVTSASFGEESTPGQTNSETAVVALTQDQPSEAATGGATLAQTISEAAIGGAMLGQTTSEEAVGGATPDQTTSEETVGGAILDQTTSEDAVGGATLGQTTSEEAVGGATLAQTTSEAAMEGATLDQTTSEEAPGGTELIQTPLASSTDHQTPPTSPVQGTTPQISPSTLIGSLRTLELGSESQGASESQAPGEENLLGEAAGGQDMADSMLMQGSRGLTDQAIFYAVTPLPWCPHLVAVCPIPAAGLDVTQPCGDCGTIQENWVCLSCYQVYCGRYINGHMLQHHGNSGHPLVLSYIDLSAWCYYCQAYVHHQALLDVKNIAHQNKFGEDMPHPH

Histone deacetylase 8 = target: T2, Histone deacetylase 8 (Homo sapiens, UniProt Q9BY41)
T2 sequence (Q9BY41 whole entry): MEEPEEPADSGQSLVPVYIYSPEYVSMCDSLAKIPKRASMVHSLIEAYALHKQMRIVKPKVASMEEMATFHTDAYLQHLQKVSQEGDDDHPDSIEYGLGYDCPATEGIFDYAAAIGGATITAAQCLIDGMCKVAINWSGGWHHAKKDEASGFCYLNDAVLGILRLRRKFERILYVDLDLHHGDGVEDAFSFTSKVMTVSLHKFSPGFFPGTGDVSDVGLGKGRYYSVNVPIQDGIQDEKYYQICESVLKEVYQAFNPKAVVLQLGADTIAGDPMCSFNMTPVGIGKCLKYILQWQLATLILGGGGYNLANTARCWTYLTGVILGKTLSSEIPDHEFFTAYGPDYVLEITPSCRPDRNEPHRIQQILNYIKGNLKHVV

Histone deacetylase 4 = Histone deacetylase 4 (Homo sapiens, UniProt P56524)
Histone deacetylase 4, sequence (P56524 whole entry): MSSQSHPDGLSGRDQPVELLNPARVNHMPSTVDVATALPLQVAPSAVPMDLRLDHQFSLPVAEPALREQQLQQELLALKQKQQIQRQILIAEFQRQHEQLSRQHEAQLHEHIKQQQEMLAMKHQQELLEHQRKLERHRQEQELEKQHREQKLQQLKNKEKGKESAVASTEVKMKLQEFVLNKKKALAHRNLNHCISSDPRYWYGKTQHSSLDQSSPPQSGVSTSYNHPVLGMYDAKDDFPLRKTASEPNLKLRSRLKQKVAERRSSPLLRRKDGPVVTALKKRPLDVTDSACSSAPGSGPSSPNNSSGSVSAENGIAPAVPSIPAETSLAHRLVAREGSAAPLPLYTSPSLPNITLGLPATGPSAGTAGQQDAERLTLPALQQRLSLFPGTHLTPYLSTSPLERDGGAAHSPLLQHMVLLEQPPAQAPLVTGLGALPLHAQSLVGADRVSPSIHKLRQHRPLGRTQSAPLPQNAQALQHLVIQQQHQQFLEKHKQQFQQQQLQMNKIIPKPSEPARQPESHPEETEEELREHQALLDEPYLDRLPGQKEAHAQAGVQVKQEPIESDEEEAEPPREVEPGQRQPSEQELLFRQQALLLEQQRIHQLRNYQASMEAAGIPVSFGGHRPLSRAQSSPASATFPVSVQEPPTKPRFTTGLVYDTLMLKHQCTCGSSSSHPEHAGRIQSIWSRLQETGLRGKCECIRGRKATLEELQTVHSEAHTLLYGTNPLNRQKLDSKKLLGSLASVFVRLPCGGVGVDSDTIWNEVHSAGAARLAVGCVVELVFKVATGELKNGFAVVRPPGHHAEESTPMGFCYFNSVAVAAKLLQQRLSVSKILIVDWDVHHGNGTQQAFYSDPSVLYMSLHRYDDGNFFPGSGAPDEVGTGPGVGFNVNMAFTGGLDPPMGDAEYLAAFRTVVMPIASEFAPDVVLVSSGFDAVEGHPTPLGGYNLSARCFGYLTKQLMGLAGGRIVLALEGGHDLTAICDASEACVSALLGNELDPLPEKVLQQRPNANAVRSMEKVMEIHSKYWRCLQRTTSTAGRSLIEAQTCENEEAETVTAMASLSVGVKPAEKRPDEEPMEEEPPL

Histone deacetylase 9 = Histone deacetylase 9 (Homo sapiens, UniProt Q9UKV0)
Histone deacetylase 9, sequence (Q9UKV0 whole entry): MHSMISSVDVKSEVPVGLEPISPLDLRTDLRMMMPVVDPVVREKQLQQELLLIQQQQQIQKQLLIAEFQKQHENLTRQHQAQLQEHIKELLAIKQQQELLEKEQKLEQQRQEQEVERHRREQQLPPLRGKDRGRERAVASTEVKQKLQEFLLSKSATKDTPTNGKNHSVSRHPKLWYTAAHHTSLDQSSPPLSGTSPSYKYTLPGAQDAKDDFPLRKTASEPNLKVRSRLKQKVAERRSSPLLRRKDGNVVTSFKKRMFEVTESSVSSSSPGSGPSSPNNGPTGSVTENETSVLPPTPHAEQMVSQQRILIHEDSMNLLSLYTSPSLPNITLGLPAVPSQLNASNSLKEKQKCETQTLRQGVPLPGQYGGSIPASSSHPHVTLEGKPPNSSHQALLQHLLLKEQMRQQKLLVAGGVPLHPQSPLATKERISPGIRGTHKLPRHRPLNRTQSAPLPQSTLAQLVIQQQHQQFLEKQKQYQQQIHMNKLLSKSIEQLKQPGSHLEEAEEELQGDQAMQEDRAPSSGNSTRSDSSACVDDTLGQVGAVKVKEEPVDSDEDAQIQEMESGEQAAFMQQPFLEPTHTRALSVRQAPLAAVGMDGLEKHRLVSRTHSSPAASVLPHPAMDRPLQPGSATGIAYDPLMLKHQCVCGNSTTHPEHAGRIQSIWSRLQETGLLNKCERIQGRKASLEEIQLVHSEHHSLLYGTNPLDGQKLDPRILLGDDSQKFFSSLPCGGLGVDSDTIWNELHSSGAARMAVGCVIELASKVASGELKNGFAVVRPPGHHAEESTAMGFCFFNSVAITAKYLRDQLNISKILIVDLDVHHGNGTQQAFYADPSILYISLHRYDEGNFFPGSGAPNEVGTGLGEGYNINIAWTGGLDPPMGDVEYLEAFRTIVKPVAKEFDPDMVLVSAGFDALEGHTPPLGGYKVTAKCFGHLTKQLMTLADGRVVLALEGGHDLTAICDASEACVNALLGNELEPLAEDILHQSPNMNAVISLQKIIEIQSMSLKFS

Histone deacetylase 3 = Histone deacetylase 3 (Homo sapiens, UniProt O15379)
Histone deacetylase 3, sequence (O15379 whole entry): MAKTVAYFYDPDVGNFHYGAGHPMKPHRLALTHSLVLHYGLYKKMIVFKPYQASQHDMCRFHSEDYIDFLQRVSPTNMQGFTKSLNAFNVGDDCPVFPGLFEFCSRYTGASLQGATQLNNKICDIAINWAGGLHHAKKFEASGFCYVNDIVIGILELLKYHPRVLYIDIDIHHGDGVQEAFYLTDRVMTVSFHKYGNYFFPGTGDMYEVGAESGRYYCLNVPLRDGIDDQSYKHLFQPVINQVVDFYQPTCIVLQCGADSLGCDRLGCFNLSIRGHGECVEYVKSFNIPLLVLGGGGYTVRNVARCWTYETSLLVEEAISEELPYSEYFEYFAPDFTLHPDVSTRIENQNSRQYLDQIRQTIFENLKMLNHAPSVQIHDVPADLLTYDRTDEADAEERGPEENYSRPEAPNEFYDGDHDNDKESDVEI

Histone deacetylase 1 = Histone deacetylase 1 (Homo sapiens, UniProt Q13547)
Histone deacetylase 1, sequence (Q13547 whole entry): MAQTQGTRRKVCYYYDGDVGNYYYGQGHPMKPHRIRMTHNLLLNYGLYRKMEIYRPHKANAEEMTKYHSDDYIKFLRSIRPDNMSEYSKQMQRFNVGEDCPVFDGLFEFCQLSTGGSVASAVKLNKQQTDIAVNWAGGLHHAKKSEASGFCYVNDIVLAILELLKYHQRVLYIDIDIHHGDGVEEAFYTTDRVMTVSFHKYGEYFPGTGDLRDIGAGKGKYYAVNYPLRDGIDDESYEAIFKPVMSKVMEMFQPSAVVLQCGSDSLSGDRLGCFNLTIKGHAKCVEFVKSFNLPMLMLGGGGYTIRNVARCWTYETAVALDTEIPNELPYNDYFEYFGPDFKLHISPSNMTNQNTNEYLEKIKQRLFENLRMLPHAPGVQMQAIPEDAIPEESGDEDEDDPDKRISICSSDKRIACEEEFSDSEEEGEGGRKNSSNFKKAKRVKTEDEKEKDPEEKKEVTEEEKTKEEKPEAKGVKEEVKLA

Histone deacetylase 7 = target: T3, Histone deacetylase 7 (Homo sapiens, UniProt Q8WUI4)
T3 sequence (Q8WUI4 whole entry): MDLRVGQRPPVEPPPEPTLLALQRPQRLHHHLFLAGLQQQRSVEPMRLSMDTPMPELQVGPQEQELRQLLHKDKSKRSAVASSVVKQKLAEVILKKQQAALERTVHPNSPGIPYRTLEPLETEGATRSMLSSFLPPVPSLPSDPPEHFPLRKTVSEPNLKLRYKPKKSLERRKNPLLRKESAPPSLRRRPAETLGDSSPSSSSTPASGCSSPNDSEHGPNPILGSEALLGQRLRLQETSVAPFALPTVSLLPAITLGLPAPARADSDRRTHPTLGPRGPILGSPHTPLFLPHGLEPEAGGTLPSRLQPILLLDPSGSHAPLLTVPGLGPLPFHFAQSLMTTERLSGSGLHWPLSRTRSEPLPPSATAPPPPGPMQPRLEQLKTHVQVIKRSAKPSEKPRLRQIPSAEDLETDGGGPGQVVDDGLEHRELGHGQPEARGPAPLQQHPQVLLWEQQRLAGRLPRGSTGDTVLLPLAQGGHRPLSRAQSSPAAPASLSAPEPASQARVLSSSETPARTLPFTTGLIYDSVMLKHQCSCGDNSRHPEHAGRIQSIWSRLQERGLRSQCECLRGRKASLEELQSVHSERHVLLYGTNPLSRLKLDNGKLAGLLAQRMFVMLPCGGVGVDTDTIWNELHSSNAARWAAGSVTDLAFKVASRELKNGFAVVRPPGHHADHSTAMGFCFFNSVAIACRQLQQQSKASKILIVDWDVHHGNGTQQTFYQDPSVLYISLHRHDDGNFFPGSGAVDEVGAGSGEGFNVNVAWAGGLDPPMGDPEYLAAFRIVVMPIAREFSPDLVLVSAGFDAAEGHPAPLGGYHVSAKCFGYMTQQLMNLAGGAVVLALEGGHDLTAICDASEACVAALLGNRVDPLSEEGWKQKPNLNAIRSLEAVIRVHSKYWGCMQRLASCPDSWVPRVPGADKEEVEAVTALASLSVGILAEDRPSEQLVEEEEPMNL

Histone deacetylase 5, sequence (Q9UQL6 whole entry): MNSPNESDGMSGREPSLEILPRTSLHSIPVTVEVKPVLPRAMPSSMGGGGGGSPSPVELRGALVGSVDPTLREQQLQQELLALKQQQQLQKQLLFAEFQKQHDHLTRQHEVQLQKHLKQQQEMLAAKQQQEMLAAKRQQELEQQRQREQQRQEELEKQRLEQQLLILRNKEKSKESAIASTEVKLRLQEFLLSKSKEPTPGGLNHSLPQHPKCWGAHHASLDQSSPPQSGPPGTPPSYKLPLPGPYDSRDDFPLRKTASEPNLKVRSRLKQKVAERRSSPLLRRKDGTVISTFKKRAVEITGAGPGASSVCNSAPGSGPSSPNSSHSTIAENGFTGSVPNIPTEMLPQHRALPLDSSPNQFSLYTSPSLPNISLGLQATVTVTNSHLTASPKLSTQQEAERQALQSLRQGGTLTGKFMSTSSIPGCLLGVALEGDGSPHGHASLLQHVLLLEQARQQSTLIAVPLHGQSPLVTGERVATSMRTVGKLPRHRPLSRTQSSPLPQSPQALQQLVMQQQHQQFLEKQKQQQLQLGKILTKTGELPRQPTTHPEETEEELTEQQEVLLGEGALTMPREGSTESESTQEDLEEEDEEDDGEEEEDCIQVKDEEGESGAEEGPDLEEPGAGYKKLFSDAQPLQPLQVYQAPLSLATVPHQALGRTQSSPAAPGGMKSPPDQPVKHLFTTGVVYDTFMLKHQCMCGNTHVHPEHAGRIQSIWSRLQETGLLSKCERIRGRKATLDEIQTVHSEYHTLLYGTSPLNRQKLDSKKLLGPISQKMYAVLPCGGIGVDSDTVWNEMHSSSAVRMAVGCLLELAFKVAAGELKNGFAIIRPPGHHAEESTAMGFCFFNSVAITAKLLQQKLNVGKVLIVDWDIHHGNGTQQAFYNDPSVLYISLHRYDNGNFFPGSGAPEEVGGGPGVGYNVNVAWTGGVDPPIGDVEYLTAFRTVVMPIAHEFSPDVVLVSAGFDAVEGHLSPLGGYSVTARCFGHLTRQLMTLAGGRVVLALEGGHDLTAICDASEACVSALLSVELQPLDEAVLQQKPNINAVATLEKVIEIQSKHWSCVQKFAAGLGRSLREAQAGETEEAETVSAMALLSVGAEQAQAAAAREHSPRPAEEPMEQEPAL
Histone deacetylase 2, sequence (Q92769 whole entry): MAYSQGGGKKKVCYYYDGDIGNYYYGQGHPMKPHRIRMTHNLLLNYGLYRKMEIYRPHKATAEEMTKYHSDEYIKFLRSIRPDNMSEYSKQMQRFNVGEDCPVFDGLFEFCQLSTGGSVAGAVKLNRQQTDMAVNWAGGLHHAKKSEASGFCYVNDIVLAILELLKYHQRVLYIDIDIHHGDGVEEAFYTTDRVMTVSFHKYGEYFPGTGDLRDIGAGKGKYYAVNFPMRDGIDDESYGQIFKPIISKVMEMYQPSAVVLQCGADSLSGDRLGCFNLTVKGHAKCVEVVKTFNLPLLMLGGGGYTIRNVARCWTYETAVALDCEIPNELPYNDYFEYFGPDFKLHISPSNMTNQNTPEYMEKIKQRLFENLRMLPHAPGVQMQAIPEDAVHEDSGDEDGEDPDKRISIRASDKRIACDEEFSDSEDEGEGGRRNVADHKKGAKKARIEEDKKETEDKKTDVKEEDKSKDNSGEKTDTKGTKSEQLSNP

| Compound | Ki (Histone deacetylase 2) [nM] | Ki (Histone deacetylase 5) [nM] | Ki [1] [nM] | Ki (Histone deacetylase 8) [nM] | Ki (Histone deacetylase 4) [nM] | Ki (Histone deacetylase 9) [nM] | Ki (Histone deacetylase 3) [nM] | Ki (Histone deacetylase 1) [nM] | Ki (Histone deacetylase 7) [nM] |
| --- | --- | --- | --- | --- | --- | --- | --- | --- | --- |
| O=C(CCCc1ccccc1)NO [PHENYLBUTYRYLHYDROXAMIC ACID] | 430 | 16000 | 150 | 1850 | – | – | – | – | – |
| CCN(CC)Cc1ccc2cc(COC(=O)Nc3ccc(C(=O)NO)cc3)ccc2c1 [GIVINOSTAT] | – | 600 | – | – | 1050 | 390 | – | – | – |
| O=C(CCCCCCC(=O)Nc1cccnc1)NO [PYROXAMIDE] | 36000 | 4750 | 4.8 | 1000 | – | – | 8 | – | – |
| C=C[C@@H](O)[C@@H]1O[C@H]1/C=C/[C@@H]1O[C@H]1[C@@H](C)O [DEPUDECIN] | 12500 | – | – | – | – | – | 14500 | 5500 | – |
| Cn1c(/C=C/C(=O)NO)ccc1C(=O)Cc1ccccc1 | 125 | 11500 | 30 | 600 | 17500 | 10000 | 250 | 55 | 7000 |
| O=C(/C=C/c1cccc(S(=O)(=O)Nc2ccccc2)c1)NO [BELINOSTAT] | – | – | 1.6 | – | 380 | – | – | – | – |
| O=C(O)CCCCCCC(=O)Nc1ccc([C@H]2O[C@@H](CSc3nc(-c4ccccc4)c(-c4ccccc4)o3)C[C@@H](c3ccc(CO)cc3)O2)cc1 [NILTUBACIN] | – | – | 2200 | 750 | – | – | – | – | – |
| O=C(/C=C/c1ccc(C(=O)N/N=C/c2ccc(O)c(O)c2O)cc1)NO | 70 | 180 | 32 | 50 | 950 | 1400 | 120 | 120 | 1100 |
| C/C=C1\NC(=O)[C@H]2CSSCC/C=C/[C@H](CC(=O)N[C@H](C(C)C)C(=O)N2)OC(=O)[C@H](C(C)C)NC1=O [ROMIDEPSIN] | – | – | – | – | – | – | – | 0.0015 | – |
| O=C(CCCCCCC(=O)NO)NO [SUBEROHYDROXAMIC ACID] | – | 9500 | 14.5 | – | – | – | 125 | – | – |
